Experimental data published in patent US20250339462A1, “CANCER TREATMENT USING ULTRA-HIGH CONCENTRATION GASEOUS NITRIC OXIDE AND A CHECKPOINT INHIBITOR” (Beyond Air, Inc., priority 2022, published 2025).
Entries after “also recorded” stand apart in the source; their conditions may differ.

Legend:
4T1 tumor-bearing mice [1] = experiment: 4T1 breast cancer model, UNO/Anti-PD-1 Repeated Dose Study; assay type: in vivo, mouse
Description: (§1) Preparation of 4T1 cells: Cancer cell suspension, in Hanks' Balanced Salt Solution (HBSS) (Biological Industries, Israel), at a concentration of 5.0×10^6 cells/ml was freshly prepared on the day of the cancer model induction. Cells were grown to a 70-80% confluency and harvested using trypsin. The cells were centrifuged at 1,200 revolutions per minute (rpm)—241 G for 8 minutes, then the pellet was re-suspended in 1 ml of HBSS. The cells were counted using an automated cell counter and a suspension with a concentration of 5.0×10^6 cells/ml was prepared. Cell viability must be above 90% before cell inoculation to the mice, otherwise new cells will need to be prepared. At the point of inoculation, cells will be at passage 8 at most. The cell suspension was then aspirated into a 1 ml syringe with a 27 G needle, for subcutaneous (s.c.) injection. All injection volume was used and was not re-introduced into the stock solution.
(§2) Inoculation of 4T1 cancer cells to mice—Cancer cell suspension at a concentration of 5.0×10^6 cells/ml was inoculated to the right flank of animals at a volume of 100 μl per mouse. Female Balb/c mice were inoculated with 100 μl of 5.0×10^6 4T1 cells/ml. Administration was performed as soon as possible following cell preparation and after manual shaking prior to withdrawal of cell suspension. Injections were performed using a 1 ml syringe and a 27 G needle where withdrawal is done without the needle.
(§3) UNO and N2 treatment—On the day of treatment, mice were anesthetized by an intraperitoneal (i.p.) injection of 100 mg/kg of ketamine and 10 mg/kg of xylazine hydrochloride solution. Tumor-bearing mice were treated with either N2 or UNO at 50,000 ppm or 100,000 ppm. UNO at 50,000 ppm was administered intratumorally by a 23 G needle for 10 minutes, at 0.2 LPM and 2 bar exit pressure. UNO at 100,000 ppm was administered intratumorally by a 23 G needle for 2 minutes, at 0.2 LPM and 2 bar exit pressure. After treatment, all mice were warmed and closely monitored until complete recovery was observed.
Injection of anti-PD-1—Anti-PD-1 was administered 5 times intraperitoneally (i.p.) at a dose of 10 mg/kg, i.p., using a 1 ml syringe with a 27 G needle. The injection was administered to approximately the same location each time.
UNO/Anti-PD-1 Repeated Dose Study—Balb/c mice (96) were inoculated with mouse breast cancer carcinoma (4T1) cells injected subcutaneously (s.c.) to the right flank. When the average tumor volume reached 50-150 mm^3, mice assigned to gas treatment groups were treated with 5% UNO (50,000 ppm), stabilized in N2, injected intratumorally (i.t.) for 10 minutes at a flow rate of 0.2 liters per minute (LPM) or with N2 injected intratumorally (i.t.) for 10 minutes at a flow rate of 0.2 LPM as a control. The mice were administered the gas treatment, e.g., UNO or N2, twice, on day 9 post-tumor cells inoculation and, 5 days later, on day 14 post-tumor inoculation. Mice assigned to the combination treatment group (i.e., gas+anti-mPD-1) were administered anti-mPD-1 injections starting from the day of first gas treatment and administered every three days thereafter, with a final dose of anti-mPD-1 injected 12 days after the first gas treatment.
(§4) Primary tumor volume progression was monitored twice a week by measuring the tumor using a digital caliper calculated as: […]
where Diameter 1 is length, Diameter 2 is width, and Diameter 3 is height.
Mice receiving two UNO treatments were divided into two groups: in the first group, the primary tumors were surgically removed 15 days after the first UNO treatment, while, in the second group, the tumors were not resected. Mice survival was evaluated. Mice that reached a tumor volume of ≥1500 mm^3 and/or a score of 12 were humanely euthanized, and the time of death was recorded. Metastases development was evaluated postmortem.

4T1 tumor-bearing mice [2] = experiment: 4T1 breast cancer model, UNO/Anti-CTLA-4 Repeated dose study; assay type: in vivo, mouse
Description: as §1, §2, §3
Injection of anti-CTLA-4—Anti-CTLA-4 was administered up to 5 times intraperitoneally (i.p.) at a dose of 5 mg/kg, i.p., using a 1 ml syringe with a 27 G needle. The injection was administered to approximately the same location each time.
UNO/Anti-CTLA-4 Repeated dose study—Balb/c mice (60) were inoculated with mouse breast cancer carcinoma (4T1) cells injected subcutaneously (s.c.) to the right flank. […]
as §4
Mice survival was evaluated. Mice that reached a tumor volume of ≥1500 mm^3 and/or a score of 12 were humanely euthanized, and the time of death was recorded. Metastases development was evaluated postmortem.

[3] = with primary tumor resection (FIG. 13B), Cox model

[N]=O [UNO, nitric oxide]
Primary tumor size vs untreated or only anti-mPD-1 (4T1 tumor-bearing mice [1]; repeated UNO dosing 50,000 ppm 10 min twice, 14 days after first UNO treatment (FIG. 12B)): significantly smaller | Survival (Kaplan-Meier) vs anti-mPD-1 alone, untreated or N2 controls (4T1 tumor-bearing mice [1]; repeated doses of UNO): tendency toward prolonged survival | Tumors smaller compared to anti-mPD-1 alone group (4T1 tumor-bearing mice [1]; repeated doses of UNO without anti-mPD-1, 14 days after first UNO treatment): 21.0% | Survival hazard ratio vs anti-mPD-1 (4T1 tumor-bearing mice [1]; [3]): 1.58 | Survival hazard ratio vs untreated (4T1 tumor-bearing mice [1]; [3]): 0.69 | Survival hazard ratio vs untreated (4T1 tumor-bearing mice [1]; without resection of primary tumor (FIG. 13A), Cox model): 0.63 | Survival hazard ratio vs anti-mCTLA-4 (4T1 tumor-bearing mice [2]; FIG. 14C, Cox model): 0.16 | Survival hazard ratio vs untreated (4T1 tumor-bearing mice [2]; FIG. 14C, Cox model): 0.31 | Mice survival vs anti-mCTLA-4 monotherapy (4T1 tumor-bearing mice [2]; UNO twice (FIG. 14C)): prolonged survival; also recorded: significantly prolongs mice survival | Tumors smaller compared to only anti-mCTLA-4 (4T1 tumor-bearing mice [2]; only UNO, 100,000 ppm 2 min twice, day 13 after first UNO treatment, P=0.1158): 12.9%
